Test results taken from patent US12139458B2, “(2,5-dioxopyrrolidin-1-yl)(phenyl)-acetamide derivatives and their use in the treatment of neurological diseases” (UNIWERSYTET JAGIELLONSKI, priority 2019, dated 2024).

Test system: Ca2+ channel type L (verapamil binding site)
Assay: Ca2+ channel type L (verapamil binding site) affinity study
Conditions: 100 μM, rat cerebral cortex
Excerpt: A unique feature of the compound 6 representing compounds of formula (II) according to the invention is the inhibition of calcium currents by blocking the transient receptor potential vanilloid type 1 (TRPV1). This effect has not been disclosed for known AEDs. TRPV1 receptor antagonism may determine the antinociceptive effect of the compounds disclosed herein. The role of the TRPV1 receptor in conduction of pain stimuli has been well documented in specialist literature (Szallasi, A.; Cortright, D. N.; Blum, C. A.; Eid, S. R. Nat. Rev. Drug. Discov. 2007, 6, 357-372). The compounds according to the invention are characterized by a complex mechanism of action, which is not described for known anticonvulsants. It should be emphasized, however, that further in vitro studies may reveal further molecular targets responsible for the pharmacological action of substances being the subject of current patent claim. The results of binding studies (sodium channel, calcium channel) and functional tests (TRPV1 receptor) for compound 6 are shown in Table 3.

In the case of O=C(C(c1ccccc1)N1C(=O)CCC1=O)N1CCN(c2cccc(C(F)(F)F)c2)CC1 (racemic) [Compound 6, 1-(2-Oxo-1-phenyl-2-(4-(3-(trifluoromethyl)phenyl)piperazin-1-yl)ethyl)pyrrolidine-2,5-dione], the “Inhibition of specific control binding, Ca2+ channel type L (verapamil binding site)” value is reported as 58.2 (100) %.
